Assay results as given in PubChem BioAssay (NCI).
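Here, GI50 denotes the concentration required for 50% inhibition of growth. TGI is the concentration that stops growth completely.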

Legend:
Assay in all cases: inhibition of tumour cell growth, NCI panel, 384-well format
786-0 renal = test system: 786-0 renal
A498 renal = test system: A498 renal
A549 NSCLC = test system: A549 NSCLC
ACHN renal = test system: ACHN renal
BT-549 breast = test system: BT-549 breast
CAKI-1 renal = test system: CAKI-1 renal
CCRF-CEM leukemia = test system: CCRF-CEM leukemia
COLO 205 colon = test system: COLO 205 colon
DU-145 prostate = test system: DU-145 prostate
EKVX NSCLC = test system: EKVX NSCLC
HCC-2998 colon = test system: HCC-2998 colon
HCT-116 colon = test system: HCT-116 colon
HCT-15 colon = test system: HCT-15 colon
HOP-62 NSCLC = test system: HOP-62 NSCLC
HOP-92 NSCLC = test system: HOP-92 NSCLC
HS 578T breast = test system: HS 578T breast
HT29 colon = test system: HT29 colon
K-562 leukemia = test system: K-562 leukemia
KM12 colon = test system: KM12 colon
LOX IMVI melanoma = test system: LOX IMVI melanoma
M14 melanoma = test system: M14 melanoma
MDA-MB-231 breast = test system: MDA-MB-231 breast
MDA-MB-435 melanoma = test system: MDA-MB-435 melanoma
MDA-MB-468 breast = test system: MDA-MB-468 breast
MOLT-4 leukemia = test system: MOLT-4 leukemia
NCI-H23 lung = test system: NCI-H23 lung
NCI-H322M lung = test system: NCI-H322M lung
NCI-H460 NSCLC = test system: NCI-H460 NSCLC
NCI/ADR-RES ovarian = test system: NCI/ADR-RES ovarian
OVCAR-3 ovarian = test system: OVCAR-3 ovarian
OVCAR-4 ovarian = test system: OVCAR-4 ovarian
OVCAR-5 ovarian = test system: OVCAR-5 ovarian
OVCAR-8 ovarian = test system: OVCAR-8 ovarian
PC-3 prostate = test system: PC-3 prostate
RXF 393 renal = test system: RXF 393 renal
SF-295 CNS = test system: SF-295 CNS
SF-539 CNS = test system: SF-539 CNS
SK-MEL-2 melanoma = test system: SK-MEL-2 melanoma
SK-MEL-28 melanoma = test system: SK-MEL-28 melanoma
SK-MEL-5 melanoma = test system: SK-MEL-5 melanoma
SK-OV-3 ovarian = test system: SK-OV-3 ovarian
SN12C renal = test system: SN12C renal
SNB-75 CNS = test system: SNB-75 CNS
TK-10 renal = test system: TK-10 renal
U251 glioblastoma = test system: U251 glioblastoma
UACC-257 melanoma = test system: UACC-257 melanoma
UACC-62 melanoma = test system: UACC-62 melanoma

COc1nn(C)cc1Nc1nccc(-c2c[nH]c3c(NC(=O)[C@@H](C)N4CCN(C)CC4)cccc23)n1
GI50 ([…]-0 renal): 18.4 µM
TGI (786-0 renal): 41.5 µM
GI50 (A498 renal): 14.2 µM
TGI (A498 renal): > 60.4 µM
GI50 (A549 NSCLC): 25.7 µM
TGI (A549 NSCLC): > 59.9 µM
GI50 (ACHN renal): 21.3 µM
TGI (ACHN renal): > 67.2 µM
GI50 (BT-549 breast): 17.2 µM
TGI (BT-549 breast): 32.4 µM
GI50 (CAKI-1 renal): 11.7 µM
TGI (CAKI-1 renal): 28.6 µM
GI50 (CCRF-CEM leukemia): 15.9 µM
TGI (CCRF-CEM leukemia): 29.4 µM
GI50 (COLO 205 colon): 20.5 µM
TGI (COLO 205 colon): 36.9 µM
GI50 (DU-145 prostate): 40.4 µM
TGI (DU-145 prostate): > 100 µM
GI50 (EKVX NSCLC): 18.7 µM
TGI (EKVX NSCLC): 49.5 µM
GI50 (HCC-2998 colon): 19.5 µM
TGI (HCC-2998 colon): 37.3 µM
GI50 (HCT-116 colon): 19.8 µM
TGI (HCT-116 colon): 43.2 µM
GI50 (HCT-15 colon): 18.7 µM
TGI (HCT-15 colon): 51.7 µM
GI50 (HOP-62 NSCLC): 29.7 µM
TGI (HOP-62 NSCLC): > 89.1 µM
GI50 (HOP-92 NSCLC): 20.4 µM
TGI (HOP-92 NSCLC): 47.6 µM
GI50 (HS 578T breast): 13 µM
TGI (HS 578T breast): 25.9 µM
GI50 (HT29 colon): 17.7 µM
TGI (HT29 colon): 32.8 µM
GI50 (K-562 leukemia): 10.5 µM
TGI (K-562 leukemia): 26.5 µM
GI50 (KM12 colon): 20.1 µM
TGI (KM12 colon): 61.2 µM
GI50 (LOX IMVI melanoma): 15.1 µM
TGI (LOX IMVI melanoma): 28.4 µM
GI50 (M14 melanoma): 16.1 µM
TGI (M14 melanoma): 31.2 µM
GI50 (MDA-MB-231 breast): 28 µM
TGI (MDA-MB-231 breast): > 95.5 µM
GI50 (MDA-MB-435 melanoma): 13.5 µM
TGI (MDA-MB-435 melanoma): 30.8 µM
GI50 (MDA-MB-468 breast): 15.1 µM
TGI (MDA-MB-468 breast): 30.9 µM
GI50 (MOLT-4 leukemia): 13.2 µM
TGI (MOLT-4 leukemia): 26.4 µM
GI50 (NCI-H23 lung): 17.4 µM
TGI (NCI-H23 lung): 42.3 µM
GI50 (NCI-H322M lung): > 52.3 µM
TGI (NCI-H322M lung): > 100 µM
GI50 (NCI-H460 NSCLC): 25.4 µM
TGI (NCI-H460 NSCLC): > 77 µM
GI50 (NCI/ADR-RES ovarian): 45.4 µM
TGI (NCI/ADR-RES ovarian): > 100 µM
GI50 (OVCAR-3 ovarian): 18.7 µM
TGI (OVCAR-3 ovarian): 51.2 µM
GI50 (OVCAR-4 ovarian): 30.2 µM
TGI (OVCAR-4 ovarian): > 62.1 µM
GI50 (OVCAR-5 ovarian): 25.1 µM
TGI (OVCAR-5 ovarian): 65.2 µM
GI50 (OVCAR-8 ovarian): 45.1 µM
TGI (OVCAR-8 ovarian): > 76.3 µM
GI50 (PC-3 prostate): 23.1 µM
TGI (PC-3 prostate): 86 µM
GI50 (RXF 393 renal): 14.9 µM
TGI (RXF 393 renal): 30.6 µM
GI50 (SF-295 CNS): 28.1 µM
TGI (SF-295 CNS): > 61.6 µM
GI50 (SF-539 CNS): 14.8 µM
TGI (SF-539 CNS): 30.3 µM
GI50 (SK-MEL-2 melanoma): 14.7 µM
TGI (SK-MEL-2 melanoma): 29.5 µM
GI50 (SK-MEL-28 melanoma): 26.9 µM
TGI (SK-MEL-28 melanoma): > 66.1 µM
GI50 (SK-MEL-5 melanoma): 14.5 µM
TGI (SK-MEL-5 melanoma): 28.3 µM
GI50 (SK-OV-3 ovarian): 9.78 µM
TGI (SK-OV-3 ovarian): 31.6 µM
GI50 (SN12C renal): 26 µM
TGI (SN12C renal): > 100 µM
GI50 (SNB-75 CNS): 17.7 µM
TGI (SNB-75 CNS): 32 µM
GI50 (TK-10 renal): 20.5 µM
TGI (TK-10 renal): > 60 µM
GI50 (U251 glioblastoma): 27.8 µM
TGI (U251 glioblastoma): 75.8 µM
GI50 (UACC-257 melanoma): 16.9 µM
TGI (UACC-257 melanoma): 30.7 µM
GI50 (UACC-62 melanoma): 17.7 µM
TGI (UACC-62 melanoma): 38.2 µM
